Values of other authors, collected in patent publication US20110104273A1, “GASTRIC RETENTIVE PHARMACEUTICAL COMPOSITIONS FOR IMMEDIATE AND EXTENDED RELEASE OF PHENYLEPHRINE” (DEPOMED, INC., priority 2009, published 2011).
Counter-ions that a name gives are not always drawn. Like-named read-outs stand apart in the source and are kept apart here.

Assays:
[1] = not given; remark: listed apart in the source

In the case of CNC[C@H](O)c1cccc(O)c1 [Phenylephrine HCl], the solubility in water is given as “freely soluble”.
For CNC[C@H](O)c1cccc(O)c1 [Phenylephrine, (R)-3-[-1-hydroxy-2-(methylamino)ethyl]phenol alcohol hydrochloride], the “threshold dosage for any effects on the cardiovascular system” value (cardiovascular system; administered orally in man) is given as “about 50 mg”, the “effects on the cardiovascular system” value (cardiovascular system; oral over-the-counter (OTC) doses) is given as “minimal effects” and the “absorption from the gut” value ([1]; oral) is given as “well absorbed”. For the same molecule, the bioavailability ([1]; oral) was “up to 38%”, the systemic bioavailability ([1]; oral administration) was “around 40%” and the “fraction of oral dose excreted unchanged in the urine” value ([1]; oral dose) was “about 3%”. For the same molecule, the solubility in water (hydrochloride) was “highly soluble”.
